Source: patent US4806532A, “Inhibition of epithelial phosphate transport” (Mayo Foundation for Medical Education and Research, priority 1985, dated 1989)
Structures can show the parent of a compound that is named as a salt.

Molecular target: T1, Na-Pi cotransporter (Canis lupus familiaris, UniProt A0A8I3NFY6)
T1 construct: were prepared from renal cortices of mongrel dogs, albino mice and New Zealand albino rabbits; from tissue; host or cells: mongrel dog renal cortex, brush border membrane vesicles
T1 sequence (A0A8I3NFY6 1-639): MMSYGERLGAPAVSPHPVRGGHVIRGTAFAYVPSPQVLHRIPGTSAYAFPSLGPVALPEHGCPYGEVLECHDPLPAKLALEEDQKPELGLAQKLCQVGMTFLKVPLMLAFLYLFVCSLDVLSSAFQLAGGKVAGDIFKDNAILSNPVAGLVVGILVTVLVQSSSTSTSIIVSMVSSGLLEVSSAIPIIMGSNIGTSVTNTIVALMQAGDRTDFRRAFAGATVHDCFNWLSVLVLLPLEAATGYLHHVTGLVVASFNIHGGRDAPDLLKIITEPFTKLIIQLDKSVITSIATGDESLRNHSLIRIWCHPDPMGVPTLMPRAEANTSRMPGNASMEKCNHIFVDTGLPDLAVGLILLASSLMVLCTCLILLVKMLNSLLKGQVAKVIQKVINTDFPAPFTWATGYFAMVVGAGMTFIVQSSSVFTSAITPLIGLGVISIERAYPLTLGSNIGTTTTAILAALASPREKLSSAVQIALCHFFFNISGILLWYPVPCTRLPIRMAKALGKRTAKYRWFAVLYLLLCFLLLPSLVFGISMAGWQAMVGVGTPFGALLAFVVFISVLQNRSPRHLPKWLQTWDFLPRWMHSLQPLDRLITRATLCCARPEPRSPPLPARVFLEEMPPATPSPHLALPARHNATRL
Experiment: Na+-gradient-dependent 32Pi uptake by renal BBMV, dog
Type: biochemical
Description: The brush border membrane vesicles (BBMV) were prepared from renal cortical tissue of adult male Sprague-Dawley rats of an average body weight of about 220 grams. Rats were fed ad libitum standard rat chow containing 0.7% Pi and had free access to distilled water. Rats were sacrificed under anesthesia and dissected renal cortical tissue was used for preparation of BBMV fraction by the divalent cation-precipitation procedure, employed and described in detail in J. Clin. Invest., 67, 1347 (1981) and J. Biol. Chem., 258, 5695 (1983), with the following modifications: (a) MgCl2 instead of CaCl2 was added to crude homogenate (final concentration 10 mM MgCl2) to precipitate membranes other than BBMV; (b) in the final step, BBMV were washed and equilibrated in a medium of pH=7.5, instead of pH=8.5. The enrichment and specific activities of typical BBM enzymes alkaline phosphatase (APases), γ-glutyamyl transferase (γ-GTT), leucineaminopeptidase (LAP) and maltase with use of these modifications were similar as in BBMV fractions prepared in our previous studies. As a final step in the preparative procedure, the BBMV fraction was washed and resuspended in a medium containing 300 mM mannitol and 5 mM Tris-HEPES adjusted to pH=t.5, referred to as "MTH-medium," unless specified otherwise. The analogous BBMV fractions, using the same procedure, were prepared from renal cortices of mongrel dogs, albino mice and New Zealand albino rabbits.
The BBMV uptake of ^32 Pi, D-[^3 H]-glucose, L-[^3 H]-proline and ^22 Na^+ was measured by means of a rapid filtration technique, as described in J. Clin. Invest., 67, 1347 (1981) and Am. J. Physiol., 246, F133-F139 (1984). Also, unless specified otherwise, the medium for the solute uptake assay consisted of following compounds (in final concentrations): 100 mM mannitol, 100 mM NaCl (or 100 mM KC1) and 5 mM Tris-HEPES (pH=7.5) and eitehr 0.1 mM K2 H^32 PO4, or 0.05 mM D-[^3 H]-glucose, or 0.025 mM L-[^3 H]-proline. IN the ^22 Na^+ uptake studies, the assay medium contained 100 mM ^22 NaCl (^22 NaCl about […] per tube), 100 mM mannitol and 5 mM Tris-HEPES (pH 7.5).
In most experiments, the Na^+ -gradient-dependent ^32 Pi uptake in the concentrative "uphill" phase was measured at 20 seconds period. Since Na^+ -independent Pi uptake in this time period was quantitatively minor component (<5%) of the Na^+ -gradient-dependent Pi uptake, it was not routinely subtracted.

What does the source list for `O=C(O)P(=O)(O)O` [TPFA, Phosphonoformic acid, trisodium salt hexahydrate]?
32Pi-uptake 120 min (1 mM TPFA, control 410 ± 5): 377 ± 6 pmoles Pi/mg protein/time; 32Pi-uptake 20 sec (1 mM TPFA, control 1178 ± 15): 476 ± 9 pmoles Pi/mg protein/time; 32Pi-uptake 20 sec (5 mM TPFA): 110 ± 3 pmoles Pi/mg protein/time; 32Pi-uptake 120 min (5 mM TPFA): 428 ± 9 pmoles Pi/mg protein/time; inhibition at 1000 µM (20 s, 1 mM TPFA, read-out: percent decrease of 20 sec 32Pi-uptake relative to control value): 59.6%; inhibition at 5000 µM (20 s, 5 mM TPFA, read-out: percent decrease of 20 sec 32Pi-uptake relative to control value): 90.7%
